Assays:
C2C12 cells [1] = test: Glucose absorption (2-deoxy-D-glucose uptake) by differentiated C2C12 myotubes, Amplex Red Glucose/Glucose Oxidase Assay Kit; assay type: cell-based, mouse; details: for glucose absorption in contrast to C2C12 cells without stimulation (in words): 0.1 μM, 1 μM, 10 μM and 100 μM metal solution
Procedure: The cells are cultured and differentiate. […] Then, a half of the culture media are removed and replaced with fresh differentiation media (90% DMEM (Dulbecco's Modified Eagle's Medium) and 10% FBS (fetal bovine serum)). […] In normal physiological conditions, the myotube differentiates from the myoblast and aggregates to form muscle. Therefore, the myotube has a cell type most similar to muscle, so that the cell type of used cells is a myotube in the whole test experiment. The glucose extracted from the cells is determined. […] When starting the experiment, add the stimulating samples with suitable concentration to the culture media and incubate at 37° C. for 30 minutes (mins). […] Finally, incubate the cells on ice for 10 mins, to stop the reaction. Then, remove the culture media, and wash the cells three times with an ice-cold PBS solution. After washing, scrape the cells from the plate with ice-cold 65% EtOH and sonicate the cells. After spun in a centrifuge at 13000 rpm and 4° C. for 15 mins, transfer the supernatant to fresh the eppendorf tube and then spin the remainder in the centrifuge again to collect the supernatant again. The collected supernatants are mixed and dry the supernatant by vacuum centrifugation. After drying, the sample is acquired and assayed for […] levels using the Amplex Red Glucose/Glucose Oxidase Assay Kit.

C2C12 cells [2] = test: Observation of change in cell type, floating and damage of C2C12 cells after stimulation
From the text: In FIG. 4, the columns with the same patterns represent the C2C12 cells stimulated by the same metal ion (or oxidized metal ion) solutions and the sign under the transverse axle indicates the concentration of the metal ion (or oxidized metal ion) solution, corresponding to each column.
In FIG. 8, the columns with the same patterns represent treatment with the same complex and the sign under the transverse axle indicates the concentration of the complex corresponding to each column.

[3] = 0.1 μM metal solution, co-treatment with 1 μM insulin, vs no stimulating sample
[4] = 1 μM metal solution, co-treatment with 10 μM insulin, vs no stimulating sample
[5] = 10 μM metal solution, co-treatment with 6 pM insulin, vs no stimulating sample
[6] = 100 μM metal solution, 30 min, vs C2C12 cells without stimulation
[7] = 100 μM metal solution, co-treatment with 1 μM insulin, vs no stimulating sample
[8] = 1 mM metal solution and the insulin
[9] = 1 mM metal solution, no insulin
[10] = 40 mg/ml solution including 1 mM metal ion, no insulin
[11] = 10 μM metal solution, 30 min, vs C2C12 cells without stimulation
[12] = 40 μg/ml complex, co-treated with 10 μM insulin, vs no stimulating sample
[13] = 40 mg/ml complex solution including 1 mM metal ion and the insulin

Row | Molecule | fold increase in glucose absorption (C2C12 cells [1]; [3]) | glucose absorption in contrast to C2C12 cells without stimulation (in words) (C2C12 cells [1]) | fold increase in glucose absorption (C2C12 cells [1]; [4]) | fold increase in glucose absorption (C2C12 cells [1]; [5]) | fold increase in glucose absorption (C2C12 cells [1]; [6]) | fold increase in glucose absorption (C2C12 cells [1]; [7]) | fold increase in glucose absorption (C2C12 cells [1]; [8]) | fold increase in glucose absorption (C2C12 cells [1]; [9]) | fold increase in glucose absorption (C2C12 cells [1]; [10]) | fold increase in glucose absorption (C2C12 cells [1]; [11]) | fold increase in glucose absorption (C2C12 cells [1]; [12]) | fold increase in glucose absorption (C2C12 cells [1]; [13]) | further results
1 | [Co+3] [Co^3+, cobalt (III) ion] | 7.73 fold | enhanced | 4.37 fold | 3.95 fold | 3.14 fold | 8.5 fold | 4.4 fold | 2.5 fold | 3.0 fold |  |  |  | change of cell type / damage of C2C12 cells (C2C12 cells [2]; 100 μM metal solution with insulin co-treatment): the type of C2C12 cells changes and the C2C12 cells are damaged; change of cell type / damage of C2C12 cells (C2C12 cells [2]; stimulation for 30 mins, 100 μM (high concentration) for metal solution): damaged at a certain level
2 | [Cr+3] [Cr^3+, chromium (III) ion] | 4.84 fold | enhanced |  | 2.36 fold | 2.41 fold | 3.74 fold | 1.3 fold | 1.6 fold | 3.9 fold | 2.21 fold |  |  | fold increase in glucose absorption (C2C12 cells [1]; 1 μM metal solution, co-treatment with 1 μM insulin, vs no stimulating sample): 3.71 fold
3 | [O]=[V+2] [VO^2+, vanadyl] |  | enhanced | 2.7 fold |  | 2.38 fold | 3.4 fold | 2.7 fold | 1.9 fold | 4.4 fold | 2.61 fold |  |  | fold increase in glucose absorption (C2C12 cells [1]; 0.1 μM metal solution, co-treatment with 0.1 μM insulin, vs no stimulating sample): 2.62 fold; fold increase in glucose absorption (C2C12 cells [1]; 10 μM metal solution, co-treatment with 10 μM insulin, vs no stimulating sample): 6.21 fold
4 | Co-TF: complex of the transferrin and Co^3+, from apo-transferrin and Co^3+ solution (3:1 mole ratio) |  |  |  |  |  |  |  |  |  |  | 7.01 fold | 7.1 fold | fold increase in glucose absorption (C2C12 cells [1]; 100 μg/ml complex, vs no stimulating sample): 4.97 fold
5 | Cr-TF: complex of the transferrin and Cr^3+ |  |  |  |  |  |  |  |  |  |  | 4.94 fold | 5.0 fold | fold increase in glucose absorption (C2C12 cells [1]; 80 μg/ml complex, vs no stimulating sample): 4.03 fold
6 | VO-TF: complex of the transferrin and VO^2+ |  |  |  |  |  |  |  |  |  |  | 6.07 fold | 6.1 fold | fold increase in glucose absorption (C2C12 cells [1]; 40 μg/ml complex, vs no stimulating sample): 4.43 fold

Source: patent US20070179084A1, “Process for reducing the concentration of blood glucose in a diabetic patient” (Nation Chiao Tung University, priority 2006, published 2007)
